Measured values published in patent US12365699B2, “Elastase inhibitor prodrug and use thereof” (SUZHOU ARK BIOPHARMACEUTICAL CO., LTD., priority 2020, dated 2025).

Columns and labels:
[1] = Stability test of prodrug in simulated lung fluids (Gamble's buffer, ALF buffer) at 37° C., HPLC ratio of prodrug and hydrolyzate; format: physicochemical; settings: for ratio of the hydrolysis: within half an hour, ratio maintained for the next 20 hours; for hydrolysis: linear hydrolysis
Protocol: (§1) Two simulated lung fluids including Gamble's buffer and ALF buffer were prepared according to literature reports (Marques M. R. C., Loebenberg R., Almukainzi M., Simulated Biological Fluids with Possible Application in Dissolution Testing, Dissolution Technologies, 2011, 18(3): 15-28) to test the prodrug stability in simulated lung fluids. In addition, according to the need for animal experimental preparations and sample analysis, three different solvents were prepared: vehicle for animal experiments (water with 5% ethanol), anhydrous ethanol and acetonitrile. They were used to test the stability of pre-dose formulations in animals and collected samples during analysis. Dissolve example 1 compound (2 mg) and example 2 compound (2 mg) in 1 mL of the above-filtered buffer or solvent, respectively. Observe whether there is undissolved particulate matter after vortex shaking, and then filter the suspension or solution to remove undissolved compounds and immediately take 100 μL as the sample at the start of the stability test. Then the ratio of prodrug and hydrolyzate (namely compound 52 in WO 2018/175173 A1, used as a control) was analyzed by HPLC. Afterwards the samples in the two simulated lung fluids were placed on an orbital shaker at 37° C. and shaken at 200 rpm, and sampling at 0.5 hours, 1 hour, 2 hours, 4 hours and 20 hours, and the ratio of prodrug and hydrolyzate were analyzed by HPLC immediately. Let the samples dissolved in the three solvents stand at room temperature, sampling at 1 hour, 3 hours, and 18 hours, and the ratio of prodrug and hydrolyzate were immediately detected.

[2] = Stability test of prodrug in different solvents (vehicle water with 5% ethanol, anhydrous ethanol, acetonitrile) at room temperature; format: physicochemical
Protocol: as §1

[3] = In vivo pharmacokinetics in mice, pulmonary drug concentration after intratracheal administration; design: species or system male C57BL/6 mice; settings: intratracheal 2 mg/kg
Text: Compare the pharmacokinetics of the final prodrug compound of Example 1 and the control example (compound 52 in WO 2018/175173 A1) in mice:
7-9-week-old male C57BL/6 mice were randomly divided into two groups after the adaptation phase: the elastase inhibitor control group and the Example 1 group.

[4] = male, C57BL/6, mouse, lung, other: intratracheal, parent compound dosed, read-out: drug concentration in the lungs

| ratio of the hydrolysis ([1]; acidic ALF buffer (pH 4.5)) [%] | ratio of the hydrolysis ([1]; neutral Gamble's buffer (pH 7.4)) [%] | hydrolysis in acetonitrile ([2]; up to 18 hours) | hydrolysis in anhydrous ethanol ([2]; anhydrous ethanol, up to 18 hours) | hydrolyzed in the resolvent ([2]; resolvent, after 18 hours) | hydrolyzed in the resolvent ([2]; resolvent, in 3 hours) | concentration at 6 h [3, 4] [ng/g] | concentration at 12 h ([3]; male, C57BL/6, mouse, lung, other: intratracheal, parent compound dosed, at 12 hours, read-out: drug concentration in the lungs) [ng/g] | hydrolysis ([1]; acidic ALF buffer (pH 4.5), in about 15 hours) | hydrolysis ([1]; neutral Gamble's buffer (pH 7.4), at 2.5 hours) | hydrolysis rate ([2]; anhydrous ethanol) | hydrolysis rate ([2]; resolvent) | drug concentration in the lungs ([3]; parent compound dosed, at 12 hours) | Compound | conversion of prodrug in mice [3] | effect on lung concentration and residence time of the control example compared to direct administration of the control example [3] |
| --- | --- | --- | --- | --- | --- | --- | --- | --- | --- | --- | --- | --- | --- | --- | --- |
| 40 | 25 | hardly hydrolyzed | hardly hydrolyzed | about 20% | about 18% | 1070 | 120 |  |  |  |  |  | CC(C)[C@H](NC(=O)[C@@H]1CCCN1C(=O)[C@@H](NC(=O)c1ccc(C(=O)NCC(=O)O)cc1)C(C)C)B1O[C@@H]2C[C@@H]3C[C@@H](C3(C)C)[C@]2(C)O1 [Example 1, N-(4-(((S)-3-methyl-1-((S)-2-(((R)-2-methyl-1-((3aS,4S,6S,7aR)-3a,5,5-trimethylhexahydro-4,6-methanobenzo[d][1,3,2]dioxaborol-2-yl)propyl)carbamoyl)pyrrolidin-1-yl)-1-oxobutan-2-yl)carbamoyl)benzoyl)glycine] | quickly converted into the control example | greatly increases the concentration and residence time of the control example in the lungs |
|  |  | did not hydrolyze |  |  |  |  |  | about 50% | about 50% | about 0.5 % per hour | about 1 % hydrolysis per hour |  | CC(C)[C@H](NC(=O)c1ccc(C(=O)NCC(=O)O)cc1)C(=O)N1CCC[C@H]1C(=O)N[C@@H](C(C)C)[B-]12OC(=O)C[N+]1(C)CC(=O)O2 (stereo partly drawn) [Example 2, N-(4-(((S)-3-methyl-1-((S)-2-(((R)-2-methyl-1-(6-methyl-4,8-dioxo-1,3,6,2-dioxazaborocan-2-yl)propyl)carbamoyl)pyrrolidin-1-yl)-1-oxobutan-2-yl)carbamoyl)benzoyl)glycine] |  |  |
|  |  |  |  |  |  | 153 |  |  |  |  |  | completely cleared | CC(C)[C@H](NC(=O)[C@@H]1CCCN1C(=O)[C@@H](NC(=O)c1ccc(C(=O)NCC(=O)O)cc1)C(C)C)B(O)O [control example, N-(4-(((S)-1-((S)-2-(((R)-1-borono-2-methylpropyl)carbamoyl)pyrrolidin-1-yl)-3-methyl-1-oxobutan-2-yl)carbamoyl)benzoyl)glycine, reference compound] |  |  |
